From patent US5279812A, “Radiolabeled anticoagulant peptides” (Merrell Dow Pharmaceuticals Inc., priority 1991, dated 1994) come the findings set out here.

pIC50: −log10 of the molar value.

The assay has as its target T1, Bovine thrombin (Bos taurus, UniProt P00735).
T1 construct: Bovine thrombin was titrated to an appropriate concentration
Nature of the assay: thrombin induced fibrin clot inhibition assay. The format is biochemical. Conditions: read-out: In vitro potency.

Method: Samples were tested in a thrombin induced fibrin clot inhibition assay. All the solutions of the assay were made with an assay buffer containing 0.12 M sodium chloride, 0.01 M sodium phosphate, 0.01% sodium azide and 0.1% bovine serum albumin, pH 7.4. […] This solution of thrombin (50 ul; 0.2 pmol) was added to the wells of a microtiter plate containing 50 ul of a solution of the synthetic peptide being tested. […] The turbidity of the solution was monitored by the autoreader at 5 min intervals. […] For the assays using human or bovine thrombin, thrombin was titrated to concentrations that gave the fibrin clot at the same rate over a 30 min period.

Turning to `CC[C@H](C)[C@H](NC(=O)[C@@H]1CCCN1C(=O)[C@H](CCC(=O)O)NC(=O)[C@H](Cc1cc(I)c(O)c(I)c1)NC(=O)CCC(=O)O)C(=O)N1CCC[C@H]1C(=O)N[C@@H](CCC(=O)O)C(=O)N[C@@H](CCC(=O)O)C(=O)N[C@@H](C)C(=O)N[C@@H](CC1CCCCC1)C(=O)N[C@H](CCC(=O)O)C(=O)O` [Example 1], the pIC50 is greater than 4.60.
